Laboratory results reported in patent publication US8580965B2, “Substituted sulfonamide compounds” (Gruenenthal GmbH, priority 2006, dated 2013).
Counter-ions that a name gives are not always drawn.

Key:
[1] = target: T1, B1R receptor of the rat (bradykinin 1 receptor) (Rattus norvegicus, UniProt P97583); assay: FLIPR Ca2+ assay (Fluo-4) on CHO K1 cells stably transfected with the B1R gene of the rat; % activation and % inhibition at 10 μM; format: cell-based; details: CHO K1 rB1R cells, Ca2+ inflow after 100 nM Des-Arg9-bradykinin; for B1R antagonism, rat [10 μM] % inhibition: test substance 10 μM; for inhibition at 10 µM: CHO-K1, test substance 10 μM, read-out: B1R antagonism, rat [10 μM] % inhibition
T1 construct: host or cells: CHO K1 cells (rB1R cells)
T1 sequence (P97583 1-337): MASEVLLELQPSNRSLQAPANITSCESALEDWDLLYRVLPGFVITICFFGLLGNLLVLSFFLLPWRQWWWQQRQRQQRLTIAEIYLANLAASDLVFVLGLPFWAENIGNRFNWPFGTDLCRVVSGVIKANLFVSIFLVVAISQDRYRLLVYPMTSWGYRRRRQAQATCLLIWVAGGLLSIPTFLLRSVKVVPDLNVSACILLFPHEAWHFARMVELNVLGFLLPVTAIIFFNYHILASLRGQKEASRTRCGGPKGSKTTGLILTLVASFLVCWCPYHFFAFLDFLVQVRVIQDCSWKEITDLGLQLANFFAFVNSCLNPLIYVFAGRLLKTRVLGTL
Method: (§1) The agonistic or antagonistic action of substances can be quantified on the bradykinin receptor 1 (B1R) of the species human and rat with ectopically expressing cell lines (CHO K1 cells) and with the aid of a Ca^2+-sensitive dye (Fluo-4) using a fluorescent imaging plate reader (FLIPR). The indication in % activation is based on the Ca^2+ signal after addition of Lys-Des-Arg^9-bradykinin (0.5 nM) or Des-Arg^9-bradykinin (100 nM). Antagonists result in a suppression of the Ca^2+ influx following administration of the agonist. The % inhibition in comparison with the maximum achievable inhibition is indicated.
(§2) Functional Investigation on the Bradykinin 1 Receptor (B1R)
(§3) The agonistic or antagonistic action of substances can be determined on the bradykinin 1 receptor (B1R) of the human and rat species with the following assay. According to this assay, the Ca^2+ inflow through the channel is quantified with the aid of a Ca^2+-sensitive dyes (Fluo-4 type, Molecular Probes Europe BV, Leiden, The Netherlands) in a fluorescent imaging plate reader (FLIPR, Molecular Devices, Sunnyvale, USA).
(§4) Chinese Hamster Ovary cells (CHO K1 cells) which are stably transfected with the human B1R gene (hB1R cells, Euroscreen s.a., Gosselies, Belgium) or the B1R gene of the rat (rB1R cells, Axxam, Milan, Italy) are used. For functional investigations, these cells are plated-out on black 96-well plates with a clear base (BD Biosciences, Heidelberg, Germany) in a density of 20,000-25,000 cells/well. Overnight, the cells are incubated at 37° C. and 5% CO2 in culture medium (hB1R cells: Nutrient Mixture Ham's F12, Gibco Invitrogen GmbH, Karlsruhe, Germany; rB1R cells: D-MEM/F12, Gibco Invitrogen, Karlsruhe, Germany) with 10 vol. % FBS (foetal bovine serum, Gibco Invitrogen GmbH, Karlsruhe, Germany). On the following day, the cells are loaded with 2.13 μM Fluo-4 (Molecular Probes Europe BV, Leiden, The Netherlands) in HBSS buffer (Hank's buffered saline solution, Gibco Invitrogen GmbH, Karlsruhe, Germany) […] (Sigma-Aldrich, Taufkirchen, Germany) and 10 mM HEPES (Sigma-Aldrich, Taufkirchen, Germany) for 60 min at 37° C. The plates are subsequently washed 2× with HBSS buffer, and HBSS buffer which additionally contains 0.1% BSA (bovine serum albumin; Sigma-Aldrich, Taufkirchen, Germany), 5.6 mM glucose and 0.05% gelatine (Merck KGaA, Darmstadt, Germany) is added. After a further incubation of 20 minutes at room temperature, the plates are inserted into the FLIPR for Ca^2+ measurement. The Ca^2+-dependent fluorescence is measured here before and after addition of substances (λex=488 nm, λem=540 nm). The quantification is effected by measurement of the highest fluorescence intensity (FC, fluorescence counts) over time.
(§5) The FLIPR protocol comprises 2 additions of substance. Test substances (10 μM) are first pipetted on to the cells and the Ca^2+ inflow is compared with the control (hB1R: Lys-Des-Arg^9-bradykinin 0.5 nM; rB1R: Des-Arg^9-bradykinin 100 nM). The value in % activation based on the Ca^2+ signal after addition of Lys-Des-Arg^9-bradykinin (0.5 nM) or Des-Arg^9-bradykinin (100 nM) is obtained therefrom. After incubation for 10 minutes, 0.5 nM Lys-Des-Arg^9-bradykinin (hB1R) or 100 nM Des-Arg^9-bradykinin (rB1R) are applied and the inflow of Ca^2+ is likewise determined. Antagonists lead to a suppression of the Ca^2+ inflow. % inhibition compared with the maximum inhibition which can be achieved is calculated. The compounds show a good activity on the human and on the rat receptor. The following data were determined by way of example: […]

[2] = target: T2, human B1R receptor (bradykinin 1 receptor) (Homo sapiens, UniProt P46663); assay: FLIPR Ca2+ assay (Fluo-4) on CHO K1 cells stably transfected with the human B1R gene; % activation and % inhibition at 10 μM; format: cell-based; details: CHO K1 hB1R cells, Ca2+ inflow after 0.5 nM Lys-Des-Arg9-bradykinin; for B1R antagonism, human [10 μM] % inhibition: test substance 10 μM; for inhibition at 10 µM: CHO-K1, test substance 10 μM, read-out: B1R antagonism, human [10 μM] % inhibition
T2 construct: host or cells: CHO K1 cells (hB1R cells)
T2 sequence (P46663 1-353): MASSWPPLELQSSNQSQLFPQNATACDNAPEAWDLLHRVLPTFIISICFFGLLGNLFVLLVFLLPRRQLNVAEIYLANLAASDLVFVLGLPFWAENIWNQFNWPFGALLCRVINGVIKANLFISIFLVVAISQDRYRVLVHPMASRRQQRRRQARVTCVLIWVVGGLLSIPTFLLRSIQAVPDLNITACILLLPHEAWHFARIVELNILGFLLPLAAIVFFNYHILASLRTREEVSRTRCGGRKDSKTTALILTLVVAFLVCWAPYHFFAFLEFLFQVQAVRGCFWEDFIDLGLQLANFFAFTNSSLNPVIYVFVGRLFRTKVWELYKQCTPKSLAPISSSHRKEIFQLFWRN
Method: as §1, §2, §3, §4, §5

| inhibition at 10 µM [1] [%] | inhibition at 10 µM [2] [%] | other results | Compound |
| --- | --- | --- | --- |
|  |  | B1R antagonism, rat [10 μM] % inhibition [1]: 43.59%; B1R antagonism, human [10 μM] % inhibition [2]: 9.96% | 2-((2-(3,4-dichlorophenylsulfonyl)-1,2,3,4-tetrahydroisoquinolin-3-yl)methoxy)-1-(4-hydroxy-4-phenylpiperidin-1-yl)ethanone [Example 76] |
| 102 | 104 |  | CCN(CCOCC(=O)N1CCC(O)(Cc2ccccc2)CC1)S(=O)(=O)c1c(C)cc(OC)c(C)c1C [Example 1, N-{2-[2-(4-benzyl-4-hydroxy-piperidin-1-yl)-2-oxo-ethoxy]-ethyl}-N-ethyl-4-methoxy-2,3,6-trimethyl-phenylsulfonamide] |
| 103 | 104 |  | CN(CCOCC(=O)N1CCC(O)(c2cccnc2)CC1)S(=O)(=O)c1c(Cl)cc(Cl)cc1Cl [Example 2, 2,4,6-trichloro-N-{2-[2-(4′-hydroxy-3′,4′,5′,6′-tetrahydro-2′H-[3,4′]bipyridinyl-1′-yl)-2-oxo-ethoxy]-ethyl}-N-methyl-phenylsulfonamide] |
|  |  | B1R antagonism, rat [10 μM] % inhibition ([1]; hydrochloride): 103.06%; B1R antagonism, human [10 μM] % inhibition ([2]; hydrochloride): 102.19% | COc1cc(C)c(S(=O)(=O)N(C)CCOCC(=O)N2CCC(O)(c3cccnc3)CC2)c(C)c1 [Example 3, N-(2-(2-(4-hydroxy-4-(pyridin-3-yl)piperidin-1-yl)-2-oxoethoxy)ethyl)-4-methoxy-N,2,6-trimethylphenylsulfonamide hydrochloride] |
|  |  | B1R antagonism, rat [10 μM] % inhibition [1]: 105.56%; B1R antagonism, human [10 μM] % inhibition [2]: 101.69% | COc1cc(C)c(S(=O)(=O)N(C)CCOCC(=O)N2CCC(O)(c3ccccn3)CC2)c(C)c1 [Example 4, N-{2-[2-(4′-hydroxy-3′,4′,5′,6-tetrahydro-2′H-[2,4′]bipyridinyl-1′-yl)-2-oxo-ethoxy]-ethyl}-4-methoxy-2,6,N-trimethyl-phenylsulfonamide] |
|  |  | B1R antagonism, rat [10 μM] % inhibition ([1]; hydrochloride): 95.11%; B1R antagonism, human [10 μM] % inhibition ([2]; hydrochloride): 101.04% | CN(CCOCC(=O)N1CCC(O)(c2cccnc2)CC1)S(=O)(=O)c1c(Cl)cc(Cl)cc1Cl [Example 5, 2,4,6-trichloro-N-(2-(2-(4-hydroxy-4-(pyridin-3-yl)piperidin-1-yl)-2-oxoethoxy)ethyl)-N-methylphenylsulfonamide hydrochloride] |
| 93.9 | 100 |  | CN(CCOCC(=O)N1CCC(O)(c2ccccn2)CC1)S(=O)(=O)c1c(Cl)cc(Cl)cc1Cl [Example 6, 2,4,6-trichloro-N-{2-[2-(4′-hydroxy-3′,4′,5′,6′-tetrahydro-2′H-[2,4′]bipyridinyl-1′-yl)-2-oxo-ethoxy]-ethyl}-N-methyl-phenylsulfonamide] |
| 35.2 | 99.8 |  | COc1cc(C)c(S(=O)(=O)N2CCC(OCC(=O)N3CCC(O)(Cc4ccccc4)CC3)C2)c(C)c1C (stereo not shown) [Example 7, 1-(4-benzyl-4-hydroxy-piperidin-1-yl)-2-[1-(4-methoxy-2,3,6-trimethyl-phenylsulfonyl)-pyrrolidin-3-yloxy]-ethanone] |
| 33.3 | 97.4 |  | COc1cc(C)c(S(=O)(=O)N2CCC(OCC(=O)N3CCC(O)(Cc4ccccc4)CC3)CC2)c(C)c1C [Example 8, 1-(4-benzyl-4-hydroxy-piperidin-1-yl)-2-[1-(4-methoxy-2,3,6-trimethyl-phenylsulfonyl)-piperidin-4-yloxy]-ethanone] |
| 91.1 | 95.7 |  | CN(CCOCC(=O)N1CCC(O)(Cc2ccccc2)CC1)S(=O)(=O)c1c(Cl)cc(Cl)cc1Cl [Example 9, N-{2-[2-(4-benzyl-4-hydroxy-piperidin-1-yl)-2-oxo-ethoxy]-ethyl}-2,4,6-trichloro-N-methyl-phenylsulfonamide] |
| 73.6 | 90.3 |  | CN(CCOCC(=O)N1CCC(O)(c2ccccn2)CC1)S(=O)(=O)c1c(Cl)cccc1Cl [Example 10, 2,6-dichloro-N-{2-[2-(4′-hydroxy-3′,4′,5′,6′-tetrahydro-2′H-[2,4′]bipyridinyl-1′-yl)-2-oxo-ethoxy]-ethyl}-N-methyl-phenylsulfonamide] |
| 1.79 | 28 |  | O=C(COC1CCN(S(=O)(=O)c2ccc(Cl)cc2Cl)C1)N1CCC(O)(c2ccccn2)CC1 (stereo not shown) [Example 17, 2-[1-(2,4-dichloro-phenylsulfonyl)-pyrrolidin-3-yloxy]-1-(4′-hydroxy-3′,4′,5′,6′-tetrahydro-2′H-[2,4′]bipyridinyl-1′-yl)-ethanone] |
| 77.3 |  |  | O=C(COCC1CCc2ccccc2N1S(=O)(=O)c1ccc(Cl)c(Cl)c1)N1CCC(O)(c2cccc(F)c2)CC1 (stereo not shown) [Example 145, 2-((1-(3,4-dichlorophenylsulfonyl)-1,2,3,4-tetrahydroquinolin-2-yl)methoxy)-1-(4-(3-fluorophenyl)-4-hydroxypiperidin-1-yl)ethanone] |
| 105 |  |  | Cc1cc(S(=O)(=O)N2CCCCC2COCC(=O)N2CCC(O)(c3ccc(Cl)c(C(F)(F)F)c3)CC2)c(C)cc1Cl (stereo not shown) [Example 160, 2-((1-(4-chloro-2,5-dimethylphenylsulfonyl)piperidin-2-yl)methoxy)-1-(4-(4-chloro-3-(trifluoromethyl)phenyl)-4-hydroxypiperidin-1-yl)ethanone] |
| 99.2 |  |  | O=C(COCC1CCCCN1S(=O)(=O)c1cc(Cl)sc1Cl)N1CCC(O)(c2ccc(Cl)c(C(F)(F)F)c2)CC1 (stereo not shown) [Example 247, 1-(4-(4-chloro-3-(trifluoromethyl)phenyl)-4-hydroxypiperidin-1-yl)-2-((1-(2,5-dichlorothiophen-3-ylsulfonyl)piperidin-2-yl)methoxy)ethanone] |
| 79.9 |  |  | COc1cc(C)c(S(=O)(=O)N2CCCC(COCC(=O)N3CCC(O)(c4ccc(Cl)c(C(F)(F)F)c4)CC3)C2)c(C)c1 (stereo not shown) [Example 253, 1-(4-(4-chloro-3-(trifluoromethyl)phenyl)-4-hydroxypiperidin-1-yl)-2-((1-(4-methoxy-2,6-dimethylphenylsulfonyl)piperidin-3-yl)methoxy)ethanone] |
